In patent US7875647B2, “Heteroaryl-pyrazole derivatives as cannabinoid CB1 receptor antagonists” (Green Cross Corporation, priority 2006, dated 2011):
Like-named read-outs stand apart in the source and are kept apart here.

Target: T1, Cannabinoid-1 receptor (CB1R) (Rattus norvegicus, UniProt P20272)
T1 construct: The tissue obtained from the brain of SD rats was homogenized; from tissue; host or cells: brain of SD rats (membrane pellet of the homogenate)
Assay: Cannabinoid-1 receptor (CB1R) binding affinity assay ([3H]CP-55940, rat CB-1 receptor binding protocol)
Details: brain tissue of SD rats, [3H]CP-55940, 30° C. 60 min

T1 sequence (P20272 whole entry): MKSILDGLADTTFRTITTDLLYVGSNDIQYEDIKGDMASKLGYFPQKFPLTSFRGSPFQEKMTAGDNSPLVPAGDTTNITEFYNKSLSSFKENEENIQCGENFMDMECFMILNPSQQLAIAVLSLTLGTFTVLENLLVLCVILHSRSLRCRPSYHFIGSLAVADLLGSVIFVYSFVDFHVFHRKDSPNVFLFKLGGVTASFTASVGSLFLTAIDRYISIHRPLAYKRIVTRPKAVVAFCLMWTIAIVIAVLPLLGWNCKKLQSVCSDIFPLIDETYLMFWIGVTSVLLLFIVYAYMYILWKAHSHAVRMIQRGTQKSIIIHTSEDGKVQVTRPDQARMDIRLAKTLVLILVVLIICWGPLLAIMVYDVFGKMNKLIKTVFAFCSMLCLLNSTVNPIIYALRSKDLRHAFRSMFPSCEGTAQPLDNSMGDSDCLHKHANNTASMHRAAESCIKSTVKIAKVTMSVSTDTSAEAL

`Cc1c(-c2n[nH]c(-c3ccccc3)n2)nn(-c2ccc(Cl)cc2Cl)c1-c1ccc(Cl)cc1` [Example 613, 3-(5-(4-Chlorophenyl)-1-(2,4-dichlorophenyl)-4-methyl-1H-pyrazol-3-yl)-5-phenyl-1H-1,2,4-triazole] gave an IC50 (read-out: IC50) of 476 nM.
With `Cc1c(-c2n[nH]c(-c3cccs3)n2)nn(-c2ccc(Cl)cc2Cl)c1-c1ccc(Cl)cc1` [Example 614, 3-(5-(4-Chlorophenyl)-1-(2,4-dichlorophenyl)-4-methyl-1H-pyrazol-3-yl)-5-(thiophen-2-yl)-1H-1,2,4-triazole] the IC50 (read-out: IC50) was 389 nM.
In the case of `Cc1c(-c2n[nH]c(C3CCCCCC3)n2)nn(-c2ccc(Cl)cc2Cl)c1-c1ccc(Cl)cc1` [Example 615, 3-(5-(4-chlorophenyl)-1-(2,4-dichlorophenyl)-4-methyl-1H-pyrazol-3-yl)-5-cycloheptyl-1H-1,2,4-triazole], the IC50 (read-out: IC50) is reported as 625 nM.
For `Cc1c(-c2n[nH]c(-c3ccco3)n2)nn(-c2ccc(Cl)cc2Cl)c1-c1ccc(Cl)cc1` [Example 616, 3-(5-(4-chlorophenyl)-1-(2,4-dichlorophenyl)-4-methyl-1H-pyrazol-3-yl)-5-(furan-2-yl)-1H-1,2,4-triazole], the IC50 (read-out: IC50) was 534 nM.
`CCCc1nc(-c2nn(-c3ccc(Cl)cc3Cl)c(-c3ccc(Cl)cc3)c2C)n[nH]1` [Example 617, 3-(5-(4-chlorophenyl)-1-(2,4-dichlorophenyl)-4-methyl-1H-pyrazol-3-yl)-5-propyl-1H-1,2,4-triazole] gave an IC50 (read-out: IC50) of 523 nM.
Work on `Cc1c(-c2n[nH]c(C(C)C)n2)nn(-c2ccc(Cl)cc2Cl)c1-c1ccc(Cl)cc1` [Example 618, 3-(5-(4-chlorophenyl)-1-(2,4-dichlorophenyl)-4-methyl-1H-pyrazol-3-yl)-5-isopropyl-1H-1,2,4-triazole] yielded an IC50 (read-out: IC50) of 142 nM.
Compound `Cc1c(-c2n[nH]c(C3CC3)n2)nn(-c2ccc(Cl)cc2Cl)c1-c1ccc(Cl)cc1` [Example 619, 3-(5-(4-chlorophenyl)-1-(2,4-dichlorophenyl)-4-methyl-1H-pyrazol-3-yl)-5-cyclopropyl-1H-1,2,4-triazole] has an IC50 (read-out: IC50) of 128 nM.
Work on `Cc1c(-c2n[nH]c(CC3CC3)n2)nn(-c2ccc(Cl)cc2Cl)c1-c1ccc(Cl)cc1` [Example 620, 3-(5-(4-chlorophenyl)-1-(2,4-dichlorophenyl)-4-methyl-1H-pyrazol-3-yl)-5-(cyclopropylmethyl)-1H-1,2,4-triazole] yielded an IC50 (read-out: IC50) of 720 nM.
`Cc1c(-c2n[nH]c(C3CCC3)n2)nn(-c2ccc(Cl)cc2Cl)c1-c1ccc(Cl)cc1` [Example 621, 3-(5-(4-chlorophenyl)-1-(2,4-dichlorophenyl)-4-methyl-1H-pyrazol-3-yl)-5-cyclobutyl-1H-1,2,4-triazole] was tested, and the IC50 (read-out: IC50) was 348 nM.
Work on `CCC(C)c1nc(-c2nn(-c3ccc(Cl)cc3Cl)c(-c3ccc(Cl)cc3)c2C)n[nH]1` (stereo not shown) [Example 622, 5-sec-butyl-3-(5-(4-chlorophenyl)-1-(2,4-dichlorophenyl)-4-methyl-1H-pyrazol-3-yl)-1H-1,2,4-triazole] yielded an IC50 (read-out: IC50) of 840 nM.
Work on `Cc1c(-c2nc(C3CCCC3)n(C)n2)nn(-c2ccc(Cl)cc2Cl)c1-c1ccc(Cl)cc1` [Example 623, 3-(5-(4-chlorophenyl)-1-(2,4-dichlorophenyl)-4-methyl-1H-pyrazol-3-yl)-5-cyclopentyl-1-methyl-1H-1,2,4-triazole] yielded an IC50 (read-out: IC50) of 368 nM.
`Cc1c(-c2nc(C3CCCCC3)n(C)n2)nn(-c2ccc(Cl)cc2Cl)c1-c1ccc(Cl)cc1` [Example 624, 3-(5-(4-chlorophenyl)-1-(2,4-dichlorophenyl)-4-methyl-1H-pyrazol-3-yl)-5-cyclohexyl-1-methyl-1H-1,2,4-triazole] showed an IC50 (read-out: IC50) of 388 nM.
Work on `Cc1c(-c2nc(C3CC3)n(C)n2)nn(-c2ccc(Cl)cc2Cl)c1-c1ccc(Cl)cc1` [Example 628, 3-(5-(4-chlorophenyl)-1-(2,4-dichlorophenyl)-4-methyl-1H-pyrazol-3-yl)-5-cyclopropyl-1-methyl-1H-1,2,4-triazole] yielded an IC50 (read-out: IC50) of 904 nM.
With `CCn1nc(-c2nn(-c3ccc(Cl)cc3Cl)c(-c3ccc(Cl)cc3)c2C)nc1C1CC1` [Example 629, 3-(5-(4-chlorophenyl)-1-(2,4-dichlorophenyl)-4-methyl-1H-pyrazol-3-yl)-5-cyclopropyl-1-ethyl-1H-1,2,4-triazole] the IC50 (read-out: IC50) was 301 nM.
`Cc1c(-c2nc(C3CC3)n(C(C)C)n2)nn(-c2ccc(Cl)cc2Cl)c1-c1ccc(Cl)cc1` [Example 630, 3-(5-(4-chlorophenyl)-1-(2,4-dichlorophenyl)-4-methyl-1H-pyrazol-3-yl)-5-cyclopropyl-1-isopropyl-1H-1,2,4-triazole] was tested, and the IC50 (read-out: IC50) was 573 nM.
`CCC(C)c1nc(-c2nn(-c3ccc(Cl)cc3Cl)c(-c3ccc(Cl)cc3)c2C)nn1CC` (stereo not shown) [Example 632, 5-sec-butyl-3-(5-(4-chlorophenyl)-1-(2,4-dichlorophenyl)-4-methyl-1H-pyrazol-3-yl)-1-ethyl-1H-1,2,4-triazole] showed an IC50 (read-out: IC50) of 834 nM.
`CCC(C)c1nc(-c2nn(-c3ccc(Cl)cc3Cl)c(-c3ccc(Cl)cc3)c2C)nn1C(C)C` (stereo not shown) [Example 633, 5-sec-butyl-3-(5-(4-chlorophenyl)-1-(2,4-dichlorophenyl)-4-methyl-1H-pyrazol-3-yl)-1-isopropyl-1H-1,2,4-triazole] was tested, and the IC50 (read-out: IC50) was 60.9 nM.
Compound `Cc1c(-c2nc(C(C)C)n(C)n2)nn(-c2ccc(Cl)cc2Cl)c1-c1ccc(Cl)cc1` [Example 634, 3-(5-(4-chlorophenyl)-1-(2,4-dichlorophenyl)-4-methyl-1H-pyrazol-3-yl)-5-isopropyl-1-methyl-1H-1,2,4-triazole] has an IC50 (read-out: IC50) of 289 nM.
Compound `CCn1nc(-c2nn(-c3ccc(Cl)cc3Cl)c(-c3ccc(Cl)cc3)c2C)nc1C(C)C` [Example 635, 3-(5-(4-chlorophenyl)-1-(2,4-dichlorophenyl)-4-methyl-1H-pyrazol-3-yl)-5-isopropyl-1-ethyl-1H-1,2,4-triazole] has an IC50 (read-out: IC50) of 712 nM.
With `Cc1c(-c2nc(C(C)C)n(C(C)C)n2)nn(-c2ccc(Cl)cc2Cl)c1-c1ccc(Cl)cc1` [Example 636, 3-(5-(4-chlorophenyl)-1-(2,4-dichlorophenyl)-4-methyl-1H-pyrazol-3-yl)-1,5-diisopropyl-1H-1,2,4-triazole] the IC50 (read-out: IC50) was 851 nM.
`Cc1c(-c2ncc(C3CCCCC3)o2)nn(-c2ccc(Cl)cc2Cl)c1-c1ccc(Cl)cc1` [Example 638, 2-(5-(4-chlorophenyl)-1-(2,4-dichlorophenyl)-4-methyl-1H-pyrazol-3-yl)-5-cyclohexyloxazole] gave an IC50 (read-out: IC50) of 93.9 nM.
`CCCCc1cnc(-c2nn(-c3ccc(Cl)cc3Cl)c(-c3ccc(Cl)cc3)c2C)o1` [Example 639, 5-butyl-2-(5-(4-chlorophenyl)-1-(2,4-dichlorophenyl)-4-methyl-1H-pyrazol-3-yl)oxazole] showed an IC50 (IC50(nM)) of 57.2 nM.
`CCc1cnc(-c2nn(-c3ccc(Cl)cc3Cl)c(-c3ccc(Cl)cc3)c2C)o1` [Example 640, 2-(5-(4-chlorophenyl)-1-(2,4-dichlorophenyl)-4-methyl-1H-pyrazol-3-yl)-5-ethyloxazole] gave an IC50 (read-out: IC50) of 51.4 nM.
For `Cc1c(-c2ncc(CC(C)C)o2)nn(-c2ccc(Cl)cc2Cl)c1-c1ccc(Cl)cc1` [Example 641, 2-(5-(4-chlorophenyl)-1-(2,4-dichlorophenyl)-4-methyl-1H-pyrazol-3-yl)-5-isobutyloxazole], the IC50 (read-out: IC50) was 40.6 nM.
Work on `Cc1c(-c2nc3c(o2)CCCC3)nn(-c2ccc(Cl)cc2Cl)c1-c1ccc(Cl)cc1` [Example 642, 2-(5-(4-chlorophenyl)-1-(2,4-dichlorophenyl)-4-methyl-1H-pyrazol-3-yl)-4,5,6,7-tetrahydrobenzo[d]oxazole] yielded an IC50 (IC50(nM)) of 44.2 nM.
